The source of these data is US4778511A, “Fluorine-containing N-sulphenylated indazoles for use as bactericides and fungicides” (Bayer Aktiengesellschaft, priority 1985, dated 1988).

Converted amounts (≈) assume the structure as drawn.

The test system of one experiment is Sclerophoma pityophila. Description: MIC against fungi (agar), Sclerophoma pityophila. Format: cell-based. The settings on record: Sydowia polyspora, 336 h, beer wort/peptone agar, 2 weeks at 28° C., 60 to 70% relative humidity. The method, then:
(§1) Active compounds, according to the invention, are added in concentrations of 0.1 mg/l to 5000 mg/l, to an agar prepared from beer wort and peptone. The MIC is determined after the agar has been stored for 2 weeks at 28° C. and 60 to 70% relative atmospheric humidity. MlC is the lowest concentration of active compound at which the species of microbe used undergoes no growth at all; it is shown in the table below.

The next experiment deals with Lentinus tigrinus. Description: MIC against fungi (agar), Lentinus tigrinus. Format: cell-based. To be noted: 336 h, beer wort/peptone agar, 2 weeks at 28° C., 60 to 70% relative humidity. The procedure:
as §1

Another experiment concerns Aspergillus niger. Description: MIC against fungi (agar), Aspergillus niger. The experiment is classed as cell-based. To be noted: 336 h, beer wort/peptone agar, 2 weeks at 28° C., 60 to 70% relative humidity. The method, then:
as §1

A further experiment concerns Aureobasidium pullulans. Kind of experiment: MIC against fungi (agar), Aureobasidium pullulans. The settings on record: 336 h, beer wort/peptone agar, 2 weeks at 28° C., 60 to 70% relative humidity. Format: cell-based. The procedure:
as §1

The test system of experiment [1] is Drechslera graminea (syn. Helminthosporium gramineum). Kind of experiment: Drechslera graminea test (barley)/seed treatment. The experiment is classed as in vivo. To be noted: application rate 500 mg/kg of seed, approx. 3 weeks after sowing, undressed 23.4. The method, then:
Drechslera graminea test (barley)/seed treatment (syn. Helminthosporium gramineum)
The active compounds are applied in the form of dry dressing agents. They are formulated by diluting the particular active compound with ground minerals to give a finely powdered mixture, which ensures uniform distribution on the surface of the seed.
The infested seed is dressed by shaking it for 3 minutes with the dressing agent in a closed glass jar.
Embedded in sieved, moist standard soil, the seed is exposed to a temperature of 4° C. for 10 days in closed Petri dishes in a refrigerator. This initiates the germination of the barley sand, if appropriate, also that of the fungus spores. The pre-germinated barley is then sown in 2 lots of 50 grains 3 cm deep in standard soil and is cultivated in seed boxes which are exposed to light for 15 hours a day in a greenhouse at a temperature of approx. 18° C.
The plants are evaluated for symptoms of stripe disease approx. 3 weeks after sowing.

The next experiment relates to Cladosporium. Kind of experiment: MIC against fungi (agar), Cladosporium. To be noted: 336 h, beer wort/peptone agar, 2 weeks at 28° C., 60 to 70% relative humidity. The experiment is classed as cell-based. The method, then:
as §1

The subject of a further experiment is Chaelomium globosum. Kind of experiment: MIC against fungi (agar), Chaetomium globosum. To be noted: 336 h, beer wort/peptone agar, 2 weeks at 28° C., 60 to 70% relative humidity. The experiment is classed as cell-based. The procedure: as §1
In another experiment the test system is Allernaria tenuis. Description: MIC against fungi (agar), Alternaria tenuis. To be noted: Alternaria alternata, 336 h, beer wort/peptone agar, 2 weeks at 28° C., 60 to 70% relative humidity. Format: cell-based. The procedure:
as §1

Another experiment deals with Penicillium glaucum. Kind of experiment: MIC against fungi (agar), Penicillium glaucum. Format: cell-based. To be noted: 336 h, beer wort/peptone agar, 2 weeks at 28° C., 60 to 70% relative humidity. The method, then: as §1
Another experiment relates to slime organisms. Kind of experiment: Action against slime organisms (MIC). Format: cell-based. To be noted: 504 h; slime organisms approx. 10^6 microbes/ml, Allen's nutrient solution with 1% caprolactam, room temperature, 3 weeks. The procedure: Substances according to the invention are used in concentrations of 0.1 to 100 mg/l in each case, dissolved in a little acetone, in Allen's nutrient solution (Arch. Mikrobiol. 17, 34 to 53 (1952)) containing 0.2 g of ammonium chloride, 4.0 g of sodium nitrate, 1.0 g of dipotassium hydrogenphosphate, 0.2 g of calcium chloride, 2.05 g of magnesium sulphate and 0.02 g of iron chloride, together with 1% of caprolactam, in 4 l of sterile water. Shortly beforehand, the nutrient solution is infested with slime organisms (approx. 10^6 microbes/ml), isolated from the spinning water circulation used in the production of polyamide.

The test system of the next experiment is Trichoderma viride. Kind of experiment: MIC against fungi (agar), Trichoderma viride. The experiment is classed as cell-based. To be noted: 336 h, beer wort/peptone agar, 2 weeks at 28° C., 60 to 70% relative humidity. The method, then: as §1
In the next experiment the test system is Polyporus versicolor. Description: MIC against fungi (agar), Polyporus versicolor. Format: cell-based. To be noted: Trametes versicolor, 336 h, beer wort/peptone agar, 2 weeks at 28° C., 60 to 70% relative humidity. The procedure: as §1

Broadly, the MIC is the lowest concentration found to suppress growth. Higher therefore signals a need for much substance. For `FC(F)(F)Oc1ccc2cnn(SC(F)(Cl)Cl)c2c1` [Example 2, 6-Trifluoromethoxy-1-dichlorofluoromethylsulphenylindazole], the minimal inhibitory concentration (MIC) is 35 µg/mL (≈ 104 µM) in the experiment with Sclerophoma pityophila; 20 µg/mL (≈ 59.7 µM) in the experiment with Lentinus tigrinus; 20 µg/mL (≈ 59.7 µM) in the experiment with Aspergillus niger; 150 µg/mL (≈ 448 µM) against Aureobasidium pullulans; 20 µg/mL (≈ 59.7 µM) against Cladosporium; 2 µg/mL (≈ 5.97 µM) in the experiment on Chaelomium globosum. Besides, the MIC against Allernaria tenuis was 75 µg/mL (≈ 224 µM); with Penicillium glaucum it was 2 µg/mL (≈ 5.97 µM). The “Diseased plants as % of all the emerged plants” value in experiment [1] is reported as 4.1%.
On to `FC(F)(F)Oc1ccc2c(cnn2SC(F)(Cl)Cl)c1Cl` [Example 12], for which the MIC with Sclerophoma pityophila stood at 200 µg/mL (≈ 541 µM); in the experiment with Lentinus tigrinus, 7.5 µg/mL (≈ 20.3 µM); in the experiment with Aspergillus niger, 50 µg/mL (≈ 135 µM); in the experiment on Aureobasidium pullulans it was 500 µg/mL (≈ 1350 µM); against Cladosporium, 20 µg/mL (≈ 54.1 µM); against Chaelomium globosum, 20 µg/mL (≈ 54.1 µM). Moreover, the figures for the minimal inhibitory concentration (MIC) in the experiment on Allernaria tenuis and against Penicillium glaucum were 200 µg/mL (≈ 541 µM) and 20 µg/mL (≈ 54.1 µM), respectively.
With `Cc1cc2cnn(SC(F)(Cl)Cl)c2c(C)c1C(F)(F)F` [Example 15], the minimum inhibitory concentration (MIC) with Aspergillus niger was 50 µg/mL (≈ 144 µM); against Chaelomium globosum it was under 20 µg/mL; in the experiment on Penicillium glaucum, under 20 µg/mL.
Turning to `FC1Oc2cc3c(cnn3SC(F)(Cl)Cl)cc2OC1(F)F` (centres unmarked) [Example 4], the minimum inhibitory concentration (MIC) amounted to 150 µg/mL (≈ 413 µM) in the experiment with Aspergillus niger, 100 µg/mL (≈ 275 µM) in the experiment on Chaelomium globosum and 100 µg/mL (≈ 275 µM) in the experiment on Penicillium glaucum.
Regarding `FC(Cl)(Cl)Sn1ncc2c(Cl)c(Cl)c(C(F)(F)F)cc21` [Example 17], the MIC is 500 µg/mL (≈ 1290 µM) against Aspergillus niger, under 20 µg/mL in the experiment on Chaelomium globosum and under 20 µg/mL against Penicillium glaucum.
Consider `FC(F)(F)Oc1ccc2c(cnn2SC(F)(Cl)Cl)c1` [Example 5], for which the minimal inhibitory concentration (MIC) is 5 to 10 µg/mL (≈ 14.9 to 29.8 µM) in the experiment on slime organisms; 50 µg/mL (≈ 149 µM) in the experiment on Trichoderma viride; 0.75 µg/mL (≈ 2.24 µM) with Sclerophoma pityophila; 0.1 µg/mL (≈ 0.298 µM) in the experiment on Lentinus tigrinus; 20 µg/mL (≈ 59.7 µM) against Aspergillus niger; 20 µg/mL (≈ 59.7 µM) against Aureobasidium pullulans. Further, the MIC was found to be 2 µg/mL (≈ 5.97 µM) in the experiment with Polyporus versicolor, 20 µg/mL (≈ 59.7 µM) in the experiment with Chaelomium globosum, 20 µg/mL (≈ 59.7 µM) against Allernaria tenuis and 20 µg/mL (≈ 59.7 µM) against Penicillium glaucum.
As to `Cc1cc(F)cc2c1cnn2SC(F)(Cl)Cl` [Example 19], the MIC with Trichoderma viride was 500 µg/mL (≈ 1770 µM); against Sclerophoma pityophila, 15 µg/mL (≈ 53 µM); against Lentinus tigrinus it was 0.5 µg/mL (≈ 1.77 µM); in the experiment with Aspergillus niger, 10 µg/mL (≈ 35.3 µM); against Aureobasidium pullulans, 50 µg/mL (≈ 177 µM); against Cladosporium it was 5 µg/mL (≈ 17.7 µM). For the same molecule, the MIC in the experiment on Chaelomium globosum turned out to be 10 µg/mL (≈ 35.3 µM); against Allernaria tenuis it was 15 µg/mL (≈ 53 µM); in the experiment with Penicillium glaucum, 20 µg/mL (≈ 70.6 µM).
Take `Fc1cccc2c1cnn2SC(F)(Cl)Cl` [1-Dichlorofluoromethylsulphenyl-4-fluoroindazole, reference compound]: the MIC in the experiment with Aspergillus niger was 500 µg/mL (≈ 1860 µM); against Chaelomium globosum, 200 µg/mL (≈ 743 µM); against Penicillium glaucum it was 200 µg/mL (≈ 743 µM).
Regarding `FC(F)(F)Oc1ccc2cnn(SC(Cl)(Cl)Cl)c2c1` [Example 1, 6-Trifluoromethoxy-1-trichloromethylsulphenylindazole], the minimum inhibitory concentration (MIC) in the experiment on Sclerophoma pityophila came out at 75 µg/mL (≈ 213 µM); against Lentinus tigrinus it was 75 µg/mL (≈ 213 µM); in the experiment with Aspergillus niger, 20 µg/mL (≈ 56.9 µM); against Aureobasidium pullulans, 350 µg/mL (≈ 996 µM); in the experiment on Cladosporium it was 20 µg/mL (≈ 56.9 µM); against Chaelomium globosum, 75 µg/mL (≈ 213 µM). Also, the figures for the minimum inhibitory concentration (MIC) in the experiment on Allernaria tenuis and against Penicillium glaucum were 150 µg/mL (≈ 427 µM) and 20 µg/mL (≈ 56.9 µM), respectively.
For `FC(F)(F)Sc1ccc2c(cnn2SC(F)(Cl)Cl)c1` [Example 18], the minimal inhibitory concentration (MIC) against Aspergillus niger, with Chaelomium globosum and against Penicillium glaucum was under 20 µg/mL in each case.
Turning to `Cc1cc(C(F)(F)F)c2cnn(SC(F)(Cl)Cl)c2c1Cl` [Example 8], the MIC in the experiment on Aspergillus niger was 500 µg/mL (≈ 1360 µM); against Chaelomium globosum, under 20 µg/mL; with Penicillium glaucum, under 20 µg/mL.
`FC(F)(F)Sc1ccc2cnn(SC(F)(Cl)Cl)c2c1` [Example 16]: the MIC against Aspergillus niger, in the experiment on Chaelomium globosum and in the experiment with Penicillium glaucum was under 20 µg/mL in each case.
